Earlier results in US9012467B2, “Compositions for intratumoral administration” (Covidien LP, priority 2009, dated 2015).

System: mice
Conditions: acute toxicity

For `COC(=O)C1=CO[C@@H](O)[C@@H]2C(CO)=CC[C@H]12` [Genipin, genipin], the LD50 i.v. is given as 382 mg/k.
